Laboratory results reported in patent US4657856A (priority 1980, dated 1987).

How the values were obtained:
[1] = test system: glutathione peroxidase produced from Mucor hiemalis YR-0929; assay: substrate specificity of glutathione peroxidase (NADPH/glutathione reductase coupled assay, 340 nm); assay type: biochemical; conditions: hydroperoxide as substrate of the enzyme; cumene hydroperoxide = 100
Protocol: The reaction is illustrated by the following formulae (1) and (2): [drawing 1] wherein GSSG represents oxidized glutathione, NADPH represents reduced nicotinamide adenine dinucleotide phosphate […] and NADP represents nicotinamide adenine dinucleotide phosphate.
(1) Substrate: 30 mM Cumene hydroperoxide aqueous solution: 0.2 ml
(2) Buffer: 100 mM Phosphate buffer (pH 7.0) containing 4 mM EDTA: 1.5 ml
(3) Reduced glutathione: 10 mM Aqueous solution: 0.3 ml
(4) Sodium azide: 10 mM Aqueous solution: 0.3 ml
(5) NADPH*: 1.6 mM Aqueous solution: 0.3 ml
(6) Glutathione reductase solution: Prepared by diluting with 100 mM phosphate buffer (pH 7.0) to 1 u/ml: 0.3 ml
(7) Enzyme solution: 0.1 ml
This enzyme acts upon cumene hydroperoxide, t-butyl hydroperoxide, linolenic acid hydroperoxide, etc.

[2] = test system: glutathione peroxidase produced from Mucor hiemalis YR-0929; assay: inhibition of glutathione peroxidase enzymatic action; assay type: biochemical; conditions: 25° C., pH 7.0
Protocol: When reacted at 25° C. and pH 7.0, this enzymatic action is inhibited by the following substances.

[3] = inhibitor concentration 10^-3 M
[4] = inhibitor concentration 10^-4 M

Compound | Relative Activity (%) [1] [%] | Percent Inhibition (%) [2, 3] [%] | Percent Inhibition (%) [2, 4] [%]
CC(C)(OO)c1ccccc1 [Cumene hydroperoxide] | 100 |  | 
NC(=O)CI [Iodoacetamide] |  | 16 | 1
CCN1C(=O)C=CC1=O [N--Ethylmaleimide] |  | 93 | 3
O=C(O)c1cc[c]([Hg][Cl])cc1 [PCMB, Parachloromercurybenzoate] |  | 99 | 75
CC(C)(C)OO [t-Butyl hydroperoxide] | 175 |  | 
Linolenic acid hydroperoxide | 98 |  | 
